Results on 1 compound are retold here after US20210000814A1, “RIMEGEPANT FOR CGRP RELATED DISORDERS” (Biohaven Pharmaceutical Holding Company Ltd., priority 2018, published 2021).

What all share (format): in vivo, human
Series [1] can be described thus: BHV3000-201 open label long-term safety study, interim analysis. The method, then: Clinical Trial—BHV3000-201: Open Label Safety Study in Acute Treatment of Migraine (ClinicalTrials.gov Identifier: NCT 03266588)
A phase 2/3 clinical study is conducted with about 2000 participants, as follows.
The purpose of this study is to evaluate safety and tolerability of BHV3000 (rimegepant).
Study Design • Study Type: Interventional (Clinical Trial) • Estimated Enrollment: 2000 participants • Intervention Model: Single Group Assignment • Masking: None (Open Label) • Primary Purpose: Treatment • Official Title: A Multicenter, Open Label Long-Term Safety Study of BHV3000 in the Acute Treatment of Migraine • Actual Study Start Date: Aug. 30, 2017 • Estimated Primary Completion Date: July 2019 • Estimated Study Completion Date: July 2019
1. To assess the safety and tolerability of rimegepant (BHV-3000) by measuring the frequency and severity of adverse events and discontinuations due to adverse events [Time Frame: 52 weeks]Number of subjects with treatment-emergent adverse events as assessed through laboratory tests, ECGs, physical exam findings (safety and tolerability)
1. ALT or AST >3×ULN with total bilirubin >2×ULN [Time Frame: 52 weeks]elevated liver function tests
2. hepatic related adverse events and hepatic related adverse events that lead to discontinuation [Time Frame: 52 weeks]adverse events related to liver
Patients were allowed to treat migraine attacks of all severities (mild to severe) up to once daily for a full year. The initial results for hepatic safety and tolerability of rimegepant 75 mg in study participants is based upon review of both adverse events and regularly scheduled liver function tests. Interim hepatic data were reviewed by an external and independent panel of liver experts. […] In the aggregate, it was noted that compared to migraine trials with drugs other than rimegepant, there was a very low incidence of overall elevations of liver function test abnormalities in rimegepant treated patients (1.0% incidence of serum ALT or AST >3x ULN). Subjects will continue to participate in Study 201 with additional data analyses to be submitted in the NDA and required 120-day safety updates.

Series [2] deals with subjects with Acute Migraines. The series can be described thus: BHV3000-303 Phase 3 trial, rimegepant ODT, acute treatment of migraine: efficacy. The settings on record: Study 303; single dose. On the procedure:
Clinical Trial—BHV3000-303: Phase 3: Double-Blind, Randomized, Placebo-Controlled, Safety and Efficacy Trial of BHV-3000 (Rimegepant) Orally Discintegrating Tablet (ODT) for the Acute Treatment of Migraine (ClinicalTrials.gov Identifier: NCT03461757) • A phase 3 clinical study was conducted with 1812 participants, as follows. The purpose of this study is to compare the efficacy of BHV-3000 (rimegepant ODT) versus placebo in subjects with Acute Migraines. […] Pain freedom of rimegepant compared with placebo in the acute treatment of migraine will be measured using the number of evaluable subjects that report no pain at 2 hours post-dose. [Time Frame: Two hours post dose] will be measured on a 4 point Likert scale (0=none, 1=mild, 2=moderate, 3=severe) 2. Freedom from the most bothersome symptom (MBS) of rimegepant compared with placebo will be measured using the number of evaluable subjects that report the absence of their MBS at 2 hours post-dose. […] The MBS (nausea, phonophobia or photophobia) will measured using a binary scale (0=absent, 1=present). […] To measure rimegepant compared to placebo on the probability of requiring rescue medication will be assessed using the number of subjects that take rescue medication within […] administration of study medication (BHV3000 or placebo). […]

A short description of series [3]: BHV3000-301 Phase 3 trial: safety and tolerability. The settings on record: Study 301. The method, then:
Methods • In a double-blind, randomized, placebo-controlled, multicenter study (Study 301, NCT03235479) adults ≥[…] of age with at least a 1-year history of ICHD 3-beta migraine were eligible to participate. Following a 3- to 28-day screening period, subjects were randomized to receive rimegepant 75 mg or matching placebo and instructed to treat a single migraine attack with 1 dose of the blinded study drug (rimegepant or placebo) when headache pain reached moderate or severe intensity. The coprimary endpoints were pain freedom at 2 hours postdose and freedom from the most bothersome symptom (MBS) at 2 hours postdose. Safety assessments included adverse events (AEs), ECGs, vital signs, physical measurements, and routine laboratory tests, including assessment of liver function. Unless stated otherwise, values presented are mean±SD.

In the case of `N[C@@H]1c2cccnc2[C@H](OC(=O)N2CCC(n3c(=O)[nH]c4ncccc43)CC2)CC[C@H]1c1cccc(F)c1F` [Rimegepant, [(55,65,9R)-5-amino-6-(2,3-difluorophenyl)-6,7,8,9-tetrahydro-5H-cyclohepta[b]pyridin-9-yl]4-(2-oxo-3H-imidazo[4,5-b]pyridin-1-yl)piperidine-1-carboxylate], the “safety and tolerability of long-term dosing” value in series [1] (Study 201 interim analysis) is recorded as “consistent with the profile observed in phase 1- 3 studies”. The “incidence of serum ALT or AST >3x ULN” value in series [1] (Study 201 interim, 75 mg up to once daily) was 1.0%. In addition, in series [1] (Study 201 interim, incl. near-daily dosing (>=15 doses/month)), the liver safety signal result is on record as “no liver safety signal detected”. Further, the “liver cases assessed as probably related to study drug” value in series [1] (Study 201 interim, independent liver panel) is recorded as “no liver cases”. Further, the “clinical benefit through 48 hours on pain relief, pain freedom, MBS, functional disability versus placebo” value in series [2] is listed as “Lasting clinical benefit”. Moreover, in series [3], the “SAE related to the study drug” value is reported as “No SAE”, the “bilirubin elevations >2 times ULN” value is given as “No bilirubin elevations” and the “transaminase level >5 times ULN” value is “no subject”. Moreover, the “safety and tolerability profile” value in series [3] (75 mg oral tablet) is “favorable tolerability and safety”. The compound further came in with an AE dizziness in series [3] (4/546 subjects) of 0.7%. This compound had an AE nausea in series [3] (5/546 subjects) of 0.9%. The “Serum ALT or AST levels greater than ULN” value in series [3] (11/546 subjects) is reported as 2.0%. For the same compound, the “Serious AEs (SAEs)” value in series [3] (n=2, both not dosed before onset) came out at 0.4%.
